According to patent publication US11827655B2, “Triplet-triplet annihilation upconversion system, and compositions and methods thereof for drug delivery” (University of Massachusetts, priority 2017, dated 2023):

Experiment: Entrapment efficiency by absorbance
Assay type: physicochemical
Settings: sensitizer and emitter loading in TTA-MSNs
Method: Next, TTA-MSNs were prepared dependence on the following steps. MSNs (50.0 mg) were dispersed 25 mL round flask in of BDP-F (2 mg), PEA (3 mg) and methyl oleate (150 mg) in THF (10 mL). The mixture solution was stirred until organic solvent evaporation (about 12 h) at room temperature in the dark condition. And then 10 mL PBS buffer was added. The mixture was ultrasonic shocked for 20 min. to make the nanoparticles dispersed in the PBS buffer. Then the BDP-F (sensitizer) and PEA (emitter)-loaded silica nanoparticles were low speed centrifuged (1000 rpm/min) for 5 min. The supernatant was collected and then extracted using dichloromethane (DCM). The DCM solvent containing BDP-F and PEA was used to measure sensitizer and emitter loading by collecting UV-vis absorption spectra using a molar absorption coefficient of 177500 M^−1 cm^−1 with)max=615 nm for BDP-F, 18000 M^−1cm^−1 with λmax=420 nm for PEA. Sensitizer and emitter loading were calculated using the following equation: Entrapment efficiency(%)=absorption of the loaded dye/absorption initial mass of the dye×100%.
The precipitate sample was extracted with 10 mL DCM. And then absorbance of Cou-C was measured to calculate the entrapment efficiency. Entrapment efficiency(%)=1−absorption of the unloaded prodrug/initial mass of the prodrug×100%.

C(#Cc1c2ccccc2cc2ccccc12)c1ccccc1 [PEA, 9-phenylacetylene anthracene]
entrapment efficiency: 72%
